target: Human Cav1.2/β3/α2δ-1 Calcium Channel Membranes (α2δ-1 subunit) (Homo sapiens (Human), UniProt P54289); test: [3H]gabapentin scintillation proximity binding assay on calcium channel α2δ-1 subunit membranes; conditions: not given
Method: This test was carried out in the following way.
Calcium Channel α2δ-1 Subunit Binding Assay
Human Cav1.2/β3/α2δ-1 Calcium Channel Membranes (Chantest) were thawed on ice, aliquotted and stored at −80° C. for subsequent use. Membranes were diluted to 200 μg/ml (3 μg/well final assay concentration (FAC)) in assay buffer (10 mM HEPES (Sigma), (pH7.4)). The [^3H]GBP (Perkin Elmer) stock solution was stored at −20° C. [^3H]GBP was diluted to 40 nM (10 nM FAC) in assay buffer. SPA beads (Perkin Elmer) were re-suspended at 100 mg/ml in 10 mM HEPES (pH 7.4). Beads were diluted to 40 mg/ml (0.6 mg/well FAC) in assay buffer. Nonspecific binding (NSB) was generated using an excess of pregabalin (Tocris). Pregabalin was solubilized in Milli-Q H2O at 10 mM. 10 mM pregabalin was diluted to 400 μM (100 μM FAC) in assay buffer.
Compounds were diluted to […] then half log diluted. These were then diluted 1:100 in assay buffer to a 4× assay concentration (1 μM FAC top dilution).
SPA beads 15 μl; membranes 15 μl; pregabalin or assay buffer/test compound 15 μl and [^3H]GBP 15 μl were added to a white 96 well isoplate, (Perkin Elmer). The assay plate was sealed and mixed for 10 s on a plate shaker then placed into a plate rack and slotted into the reader stacker.
The NSB values obtained by adding 100 μM pregabalin were subtracted from values obtained for compounds to generate a specific binding value. Specific binding in counts per minute (cpm) were plotted against compound concentration (M) and fitted using a 4 parameter logistic equation.

Chain of Human Cav1.2/β3/α2δ-1 Calcium Channel Membranes (α2δ-1 subunit) (P54289 25-956): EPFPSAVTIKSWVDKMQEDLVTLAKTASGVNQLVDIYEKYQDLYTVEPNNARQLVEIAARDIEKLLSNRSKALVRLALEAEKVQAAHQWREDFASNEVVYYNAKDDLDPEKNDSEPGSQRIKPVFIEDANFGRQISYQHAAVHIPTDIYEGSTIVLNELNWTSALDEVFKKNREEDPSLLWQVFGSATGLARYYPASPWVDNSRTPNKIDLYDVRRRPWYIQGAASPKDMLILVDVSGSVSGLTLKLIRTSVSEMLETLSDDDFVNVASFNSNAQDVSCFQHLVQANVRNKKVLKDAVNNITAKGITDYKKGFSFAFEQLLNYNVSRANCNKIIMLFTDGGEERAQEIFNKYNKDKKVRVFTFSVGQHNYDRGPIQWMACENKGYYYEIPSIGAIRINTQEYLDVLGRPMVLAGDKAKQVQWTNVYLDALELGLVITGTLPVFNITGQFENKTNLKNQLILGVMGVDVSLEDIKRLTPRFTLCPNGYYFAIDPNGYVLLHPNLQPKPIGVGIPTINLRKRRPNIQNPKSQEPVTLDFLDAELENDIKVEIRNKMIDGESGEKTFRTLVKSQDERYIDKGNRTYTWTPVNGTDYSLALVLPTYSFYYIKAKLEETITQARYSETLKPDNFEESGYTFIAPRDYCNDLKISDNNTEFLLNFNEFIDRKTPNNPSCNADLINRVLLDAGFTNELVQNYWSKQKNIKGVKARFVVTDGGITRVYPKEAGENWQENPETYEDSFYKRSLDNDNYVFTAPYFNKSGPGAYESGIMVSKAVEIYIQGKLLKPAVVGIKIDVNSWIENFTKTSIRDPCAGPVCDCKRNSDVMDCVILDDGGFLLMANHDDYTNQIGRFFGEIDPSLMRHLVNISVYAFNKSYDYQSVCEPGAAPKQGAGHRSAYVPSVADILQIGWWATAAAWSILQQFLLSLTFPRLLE
Chain of Human Cav1.2/β3/α2δ-1 Calcium Channel Membranes (α2δ-1 subunit) (P54289 957-1103): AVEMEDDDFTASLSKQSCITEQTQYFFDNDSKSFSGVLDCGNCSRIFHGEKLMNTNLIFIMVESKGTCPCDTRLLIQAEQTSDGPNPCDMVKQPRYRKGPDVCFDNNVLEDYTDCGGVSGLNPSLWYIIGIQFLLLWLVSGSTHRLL
Chain of Human Cav1.2/β3/α2δ-1 Calcium Channel Membranes (α2δ-1 subunit) (Q13936 whole entry partner): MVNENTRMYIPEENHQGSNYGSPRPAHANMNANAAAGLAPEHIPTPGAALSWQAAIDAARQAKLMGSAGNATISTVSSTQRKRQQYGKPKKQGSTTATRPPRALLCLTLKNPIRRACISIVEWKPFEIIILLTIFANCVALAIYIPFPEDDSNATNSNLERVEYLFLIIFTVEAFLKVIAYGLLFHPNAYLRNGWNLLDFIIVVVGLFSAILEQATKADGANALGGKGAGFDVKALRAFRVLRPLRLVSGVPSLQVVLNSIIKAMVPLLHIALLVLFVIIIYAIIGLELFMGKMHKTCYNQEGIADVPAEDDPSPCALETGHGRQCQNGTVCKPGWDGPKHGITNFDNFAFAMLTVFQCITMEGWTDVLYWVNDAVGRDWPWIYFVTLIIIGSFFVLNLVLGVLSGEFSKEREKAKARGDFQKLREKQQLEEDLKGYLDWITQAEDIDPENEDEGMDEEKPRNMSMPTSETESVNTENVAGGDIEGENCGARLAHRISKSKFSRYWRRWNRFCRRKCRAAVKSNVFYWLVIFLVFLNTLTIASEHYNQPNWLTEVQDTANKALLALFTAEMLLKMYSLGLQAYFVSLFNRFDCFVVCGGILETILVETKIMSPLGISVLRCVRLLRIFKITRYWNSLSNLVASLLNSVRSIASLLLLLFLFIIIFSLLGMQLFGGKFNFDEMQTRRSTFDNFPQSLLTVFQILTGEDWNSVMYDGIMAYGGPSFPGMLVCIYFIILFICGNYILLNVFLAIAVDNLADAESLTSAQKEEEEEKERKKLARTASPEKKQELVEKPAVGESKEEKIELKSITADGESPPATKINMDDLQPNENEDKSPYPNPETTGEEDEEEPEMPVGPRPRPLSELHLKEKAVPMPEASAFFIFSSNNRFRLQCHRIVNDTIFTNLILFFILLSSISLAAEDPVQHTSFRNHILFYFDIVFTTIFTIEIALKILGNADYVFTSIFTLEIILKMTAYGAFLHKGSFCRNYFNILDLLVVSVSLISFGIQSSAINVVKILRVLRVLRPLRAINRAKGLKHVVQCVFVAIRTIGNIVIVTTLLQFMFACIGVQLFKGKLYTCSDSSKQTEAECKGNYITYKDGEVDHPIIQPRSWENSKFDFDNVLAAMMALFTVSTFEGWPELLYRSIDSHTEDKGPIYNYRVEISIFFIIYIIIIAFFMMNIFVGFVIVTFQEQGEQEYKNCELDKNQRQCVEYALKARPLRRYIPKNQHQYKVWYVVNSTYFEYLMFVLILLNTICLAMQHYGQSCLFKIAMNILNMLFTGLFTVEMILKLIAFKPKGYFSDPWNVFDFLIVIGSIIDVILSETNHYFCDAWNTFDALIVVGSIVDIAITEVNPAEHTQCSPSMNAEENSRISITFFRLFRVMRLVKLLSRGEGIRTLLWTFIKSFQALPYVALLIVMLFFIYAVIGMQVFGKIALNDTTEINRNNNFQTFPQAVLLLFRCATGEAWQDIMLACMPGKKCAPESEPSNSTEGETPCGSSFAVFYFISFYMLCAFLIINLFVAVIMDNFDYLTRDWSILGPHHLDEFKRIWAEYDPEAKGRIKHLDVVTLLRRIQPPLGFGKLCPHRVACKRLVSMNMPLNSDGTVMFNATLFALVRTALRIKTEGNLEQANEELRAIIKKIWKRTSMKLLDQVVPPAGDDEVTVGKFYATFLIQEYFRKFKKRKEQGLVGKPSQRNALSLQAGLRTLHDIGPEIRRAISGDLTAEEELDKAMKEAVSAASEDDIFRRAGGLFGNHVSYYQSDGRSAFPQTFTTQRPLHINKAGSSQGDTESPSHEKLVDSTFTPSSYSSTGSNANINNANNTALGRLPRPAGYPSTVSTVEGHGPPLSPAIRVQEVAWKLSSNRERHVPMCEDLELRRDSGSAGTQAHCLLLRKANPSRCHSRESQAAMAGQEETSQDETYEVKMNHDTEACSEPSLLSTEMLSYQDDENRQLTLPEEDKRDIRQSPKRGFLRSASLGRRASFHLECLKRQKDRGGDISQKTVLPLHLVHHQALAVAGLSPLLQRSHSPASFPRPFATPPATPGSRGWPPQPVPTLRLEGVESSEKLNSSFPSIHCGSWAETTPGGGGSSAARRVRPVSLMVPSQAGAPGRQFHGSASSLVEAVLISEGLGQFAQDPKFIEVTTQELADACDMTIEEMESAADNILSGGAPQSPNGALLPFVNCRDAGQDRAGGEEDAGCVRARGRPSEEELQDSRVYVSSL
Chain of Human Cav1.2/β3/α2δ-1 Calcium Channel Membranes (α2δ-1 subunit) (P54284 whole entry partner): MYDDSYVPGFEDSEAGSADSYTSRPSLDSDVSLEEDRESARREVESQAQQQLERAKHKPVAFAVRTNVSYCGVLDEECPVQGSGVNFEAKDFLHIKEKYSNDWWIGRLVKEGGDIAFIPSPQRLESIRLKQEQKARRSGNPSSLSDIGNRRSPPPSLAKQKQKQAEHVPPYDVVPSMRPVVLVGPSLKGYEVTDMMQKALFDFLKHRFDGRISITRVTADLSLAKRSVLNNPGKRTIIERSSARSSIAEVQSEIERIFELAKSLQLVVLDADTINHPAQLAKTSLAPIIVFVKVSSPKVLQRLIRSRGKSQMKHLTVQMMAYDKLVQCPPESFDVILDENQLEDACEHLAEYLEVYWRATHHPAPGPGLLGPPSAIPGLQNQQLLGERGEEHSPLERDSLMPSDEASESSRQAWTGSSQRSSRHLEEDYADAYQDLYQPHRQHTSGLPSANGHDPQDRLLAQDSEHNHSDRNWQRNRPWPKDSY

Row | Structure (SMILES) | IC50
1 | CCC1=CC2C(C1)C[C@@]2(CN)Cc1nn[nH]n1 (single isomer, unassigned) [Formula 2 peak 1 (Chiral)] | 165 nM
2 | CCNC[C@]1(Cc2nnn[nH]2)C[C@H]2CC(CC)=C[C@H]21 (racemic) [Formula 1 (Racemic), Racemic N-(((1R,5S,6S)-6-((1H-tetrazol-5-yl)methyl)-3-ethylbicyclo[3.2.0]hept-3-en-6-yl)methyl)ethanamine] | ≥ 500 nM
3 | CCC1=C[C@@H]2[C@H](C1)C[C@]2(CN)Cc1nc(=O)o[nH]1 (racemic) [Formula 3 (Racemic), Racemic 3-(((1R,5S,6S)-6-(aminomethyl)-3-ethylbicyclo[3.2.0]hept-3-en-6-yl)methyl)-1,2,4-oxadiazol-5(4H)-one] | 19 nM
4 | CCC1=CC2C(C1)C[C@]2(CN)Cc1nn[nH]n1 (single isomer, unassigned) [Formula 2 peak 2 (chiral)] | 2.1 nM
5 | CC(C)CC(CN)CC(=O)O (stereo not drawn) [Pregabalin, reference compound] | 23 nM
6 | CCC1=C[C@@H]2[C@H](C1)C[C@]2(CN)Cc1nn[nH]n1 (racemic) [Formula 2 (Racemic), Racemic ((1R,5S,6S)-6-((1H-tetrazol-5-yl)methyl)-3-ethylbicyclo[3.2.0]hept-3-en-6-yl)methanamine] | 4.2 nM

system: human recombinant CACNA2D1 (Voltage-Gated Calcium Channel subunit α2δ-1 fragment); test: Biacore surface plasmon resonance kinetic binding analysis on immobilised CACNA2D1; conditions: SPR, CM5 chip, BSA reference subtracted
Text: Method for determining kinetic binding parameters (association and dissociation rates) and affinities (KD) of GABA analogues to α2δ-1subunits.
It is well known in the art that binding affinity can be expressed as KD or equilibrium dissociation constant, whereby increasing binding affinity correlates with decreasing KD, which can be calculated from kinetic binding constants. Kinetic binding analysis of GABA analogues to α2δ-1subunits can be determined by surface plasmon resonance technology applied in Biacore™ SPR instruments (Biacore, GE Healthcare, Uppsala). Kinetic association rates (ka; k-on) and dissociation rates (kd; k-off) are obtained. Equilibrium dissociation constant (KD; affinity) values are calculated as k-off/k-on.
This example discloses that the GABA analogues ((1R,5S,6S)-6-((1H-tetrazol-5-yl)methyl)-3-ethylbicyclo[3.2.0]hept-3-en-6-yl)methanamine (“Test Compound”: prepared as described in Example 2) and (1R,5S,6S)-6-(aminomethyl)-3-ethylbicyclo[3.2.0]hept-3-en-6-yl]acetic acid (“Reference Compound”: prepared as described in WO 2010/079668 and US 2012/0071685A1) are capable of binding to a recombinant fragment of human Voltage-Gated Calcium Channel subunit (α2δ-1, CACNA2D1). […]

Row | Structure (SMILES) | Specific binding to human CACNA2D1 recombinant protein
7 | CCC1=C[C@@H]2[C@H](C1)C[C@]2(CN)Cc1nnn[nH]1 [Test Compound, ((1R,5S,6S)-6-((1H-tetrazol-5-yl)methyl)-3-ethylbicyclo[3.2.0]hept-3-en-6-yl)methanamine] | able to specifically bind
8 | CCC1=C[C@@H]2[C@H](C1)C[C@]2(CN)CC(=O)O [Reference Compound, reference compound] | able to specifically bind

target: α2δ-1 sub-unit (Homo sapiens (Human), UniProt P54289); test: not given; conditions: read-out: Literature IC50 nM; binding to α2δ-1 sub-unit, literature value; cited from earlier work
Sequence (P54289 whole entry, looked up): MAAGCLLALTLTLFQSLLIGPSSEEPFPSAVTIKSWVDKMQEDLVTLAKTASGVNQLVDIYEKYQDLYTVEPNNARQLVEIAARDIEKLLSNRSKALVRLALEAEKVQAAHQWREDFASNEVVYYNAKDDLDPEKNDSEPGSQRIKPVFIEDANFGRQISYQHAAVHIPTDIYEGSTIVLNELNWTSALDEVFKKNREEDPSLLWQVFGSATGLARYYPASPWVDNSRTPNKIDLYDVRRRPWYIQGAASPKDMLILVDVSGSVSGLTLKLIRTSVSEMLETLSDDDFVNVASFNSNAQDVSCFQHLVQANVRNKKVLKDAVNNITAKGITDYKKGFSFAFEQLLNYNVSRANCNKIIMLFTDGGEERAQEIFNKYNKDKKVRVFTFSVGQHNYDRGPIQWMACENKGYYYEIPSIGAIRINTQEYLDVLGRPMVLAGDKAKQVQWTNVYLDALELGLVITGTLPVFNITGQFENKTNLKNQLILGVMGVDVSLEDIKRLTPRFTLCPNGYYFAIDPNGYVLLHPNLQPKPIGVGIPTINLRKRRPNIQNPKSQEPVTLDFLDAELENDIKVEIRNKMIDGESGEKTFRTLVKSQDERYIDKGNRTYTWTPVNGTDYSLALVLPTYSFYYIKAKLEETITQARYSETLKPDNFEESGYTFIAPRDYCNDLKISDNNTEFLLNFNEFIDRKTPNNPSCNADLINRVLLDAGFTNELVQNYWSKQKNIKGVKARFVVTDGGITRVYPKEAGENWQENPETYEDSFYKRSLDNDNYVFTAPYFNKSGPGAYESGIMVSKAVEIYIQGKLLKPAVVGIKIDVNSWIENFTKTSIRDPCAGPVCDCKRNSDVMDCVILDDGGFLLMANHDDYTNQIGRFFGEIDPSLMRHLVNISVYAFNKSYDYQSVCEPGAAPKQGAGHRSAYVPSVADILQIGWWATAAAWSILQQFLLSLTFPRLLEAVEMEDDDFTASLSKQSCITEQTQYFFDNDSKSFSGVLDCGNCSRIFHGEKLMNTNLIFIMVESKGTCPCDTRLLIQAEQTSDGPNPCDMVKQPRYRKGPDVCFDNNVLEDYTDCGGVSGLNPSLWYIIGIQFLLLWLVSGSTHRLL

Row | Structure (SMILES) | IC50
9 | CC(C)CC(CN)CC(=O)O (stereo not drawn) [Pregabalin, reference compound] | 80 nM

— patent publication US9663479B2, “γ-aminobutyric acid (GABA) analogues for the treatment of pain and other disorders” (Novassay S.A., priority 2013, dated 2017)
